Laboratory results taken from patent publication EP0565593B1, “REDUCING PESTICIDAL INTERACTIONS IN CROPS” (priority 1990, dated 1992).

Legend:
VELE (velvetleaf) = assay: Greenhouse test Procedure I with PPI or POE herbicide and foliar insecticide (Example 5; Table 5); format: in vivo, Abutilon theophrasti; conditions: 3 weeks
Method: Containers were filled and compacted with a fumigated silt loam top soil to a depth of about 1.3 cm from the top of the container. A first container was designated as an untreated control, a second container was designated as a herbicide control, and a third container was designated as a herbicide + antidote test container. Each of the containers was seeded with a crop species. A measured amount of herbicide dispersed or dissolved in acetone was applied to a measured quantity of soil. To this same quantity of soil treated with herbicide, there was added a measured amount of antidote dispersed or dissolved in acetone. The quantity of soil treated with the herbicide and antidote was thoroughly mixed to incorporate the herbicide and antidote in the soil uniformly. The seed bed in the third container of soil was covered with the soil treated with the herbicide and antidote and the container was leveled. For each test series, the seed beds of the first and second containers were likewise covered by soil layers. the cover layer of the first container was not treated with herbicide or antidote.
Insecticide application was made as described in the tests in the examples below. The containers were then placed on a bench in a greenhouse and sub-irrigated as required for the duration of the test.
Said herbicide and antidote were sequentially pipetted onto cover layers, which were spread over the seed beds and subirrigated as in Procedure I and allowed to grow to a height of about 10 cm over a period of 11 days. Herbicide No. 1 and Insecticide No. 2 were then sequentially sprayed on the plant foliage. Observations were made three (3) weeks after initial treatment, 10 days after foliar treatment).

grain sorghum (GRSO) = assay: Multi-crop greenhouse test, soil-applied (Examples 65, 66; Tables 64, 65); format: in vivo
How it was run: (§1)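 Injury to crops and weeds was rated after granular COUNTER 15G and acetone-delivered safeners were mixed into cover soil over seeded silt loam pans. MON-12000 followed POE 6 days after PPI, with injury read 10 days later. Two replicates.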

Giant foxtail (GIFT) = assay: as above; format: in vivo
How it was run: as §1

soybean (SOBE) = assay: as above; format: in vivo
How it was run: as §1

RICE = assay: as above; format: in vivo
How it was run: as §1

Corn = assay: as above; format: in vivo
How it was run: as §1

Velvetleaf (VELE) = assay: as above; format: in vivo, Abutilon theophrasti
Method: Tests according to this invention in various crops indicate widespread application of the invention. In Examples 62-66 below are described tests with a variety of herbicides contacted with COUNTER® 15G in the presence and absence of MON-7400 (Antidote No. 12); MON-13900 (No. 1); MON-4660 (No. 16) and flurazole (No. 16). Those tests were conducted according to Procedures IV or V described above and illustrated further in other foregoing examples. Plants used in all tests were, for crops (as abbreviated in parentheses); cotton (COTT); soybean (SOBE); CORN, grain sorghum (GRSO); wheat (WHEA) and RICE, and the weeds giant foxtail (GIFT) and velvetleaf (VELE). The data in the tables below represent averages of two replications.
In this test the crops and weeds were planted 1.3 cm deep in 13.7 cm X 27.7 cm pans containing Dupo silt loam soil. The test safeners were applied in acetone solution and COUNTER 15G as dry granules to soil cover layers and incorporated by shaking in a bag. Treated cover layers were placed on seeded pans which were transferred to greenhouse benches and subirrigated. Herbicide was applied POE six (6) days after PPI initiation and observations of plant injury made ten (10) days later; results are shown in Table 61. The herbicide used in this example was BEACON (No. 8).
In another test in the several crops and weeds used in this test series, the herbicidal component was MON-12000 (No. 1); the other components were the same. the procedure used in this test was the same as that described in Example 62, modified to use a light overhead irrigation (about 0.32 cm/day) during days 4-7 of the test. Table 64 […]

[1] = Table 64, Herb. No. 1 0.018 Kg/Ha + Biocide No. 1 8.96 Kg/Ha + Antidote 4.48 Kg/Ha
[2] = Table 64, Herb. No. 1 0.07 Kg/Ha + Biocide No. 1 8.96 Kg/Ha + Antidote 4.48 Kg/Ha
[3] = Table 64, Herb. No. 1 0.28 Kg/Ha + Biocide No. 1 8.96 Kg/Ha + Antidote 4.48 Kg/Ha
[4] = Table 65, Herb. No. 1 0.018 Kg/Ha + Biocide No. 1 8.96 Kg/Ha + Antidote 4.48 Kg/Ha
[5] = Table 65, Herb. No. 1 0.07 Kg/Ha + Biocide No. 1 8.96 Kg/Ha + Antidote 4.48 Kg/Ha
[6] = Table 65, Herb. No. 1 0.28 Kg/Ha + Biocide No. 1 8.96 Kg/Ha + Antidote 4.48 Kg/Ha

| Compound | % Inhibition GRSO (grain sorghum (GRSO); [1]) [%] | % Inhibition GRSO (grain sorghum (GRSO); [2]) [%] | % Inhibition GRSO (grain sorghum (GRSO); [3]) [%] | % Inhibition GRSO (grain sorghum (GRSO); [4]) [%] | % Inhibition GRSO (grain sorghum (GRSO); [5]) [%] | % Inhibition GRSO (grain sorghum (GRSO); [6]) [%] | % Inhibition GIFT (Giant foxtail (GIFT); [1]) [%] | % Inhibition GIFT (Giant foxtail (GIFT); [2]) [%] | % Inhibition GIFT (Giant foxtail (GIFT); [3]) [%] | % Inhibition GIFT (Giant foxtail (GIFT); [4]) [%] | % Inhibition GIFT (Giant foxtail (GIFT); [5]) [%] | % Inhibition GIFT (Giant foxtail (GIFT); [6]) [%] | % Inhibition SOBE (soybean (SOBE); [1]) [%] | % Inhibition SOBE (soybean (SOBE); [2]) [%] | % Inhibition SOBE (soybean (SOBE); [3]) [%] | % Inhibition SOBE (soybean (SOBE); [4]) [%] | % Inhibition SOBE (soybean (SOBE); [5]) [%] | % Inhibition SOBE (soybean (SOBE); [6]) [%] | % Inhibition RICE (RICE; [1]) [%] | % Inhibition RICE (RICE; [2]) [%] | also measured |
| --- | --- | --- | --- | --- | --- | --- | --- | --- | --- | --- | --- | --- | --- | --- | --- | --- | --- | --- | --- | --- | --- |
| CC1(C)OC(c2ccco2)CN1C(=O)C(Cl)Cl (stereo not shown) [Antidote No. 1, Oxazolidine, 3-(dichloroacetyl)-2,2-dimethyl-5-(2-furanyl)-] |  |  |  |  |  |  |  |  |  |  |  |  |  |  |  |  |  |  |  |  | % Injury VELE (VELE (velvetleaf); Antidote 1 0.14 + Herbicide 1 0.14 Kg/Ha PPI): 85%; % Injury VELE (VELE (velvetleaf); Antidote 1 0.56 + Herbicide 1 0.56 Kg/Ha PPI): 80%; % Injury VELE (VELE (velvetleaf); Antidote 1 2.24 + Herbicide 1 2.24 Kg/Ha PPI): 93%; % Injury VELE (VELE (velvetleaf); Insecticide 2 1.68 (foliar) + Antidote 1 0.14 + Herbicide 1 0.14 Kg/Ha PPI): 90%; % Injury VELE (VELE (velvetleaf); Insecticide 2 1.68 (foliar) + Antidote 1 0.56 + Herbicide 1 0.56 Kg/Ha PPI): 93%; % Injury VELE (VELE (velvetleaf); Insecticide 2 1.68 (foliar) + Antidote 1 2.24 + Herbicide 1 2.24 Kg/Ha PPI): 93%; % Injury VELE (VELE (velvetleaf); Insecticide 2 1.68 (foliar) + Antidote 1 2.24 Kg/Ha PPI, no herbicide): 0% |
| CC1(C)OC(c2ccco2)CN1C(=O)C(Cl)Cl (stereo not shown) [compound 1] | 0 | 0 | 0 | 0 | 25 | 65 | 50 | 70 | 85 | 40 | 80 | 95 | 35 | 75 | 70 | 0 | 0 | 5 | 0 | 10 | % Inhibition RICE (RICE; [3]): 25%; % Inhibition RICE (RICE; [4]): 10%; % Inhibition RICE (RICE; [5]): 25%; % Inhibition RICE (RICE; [6]): 95%; % Inhibition Corn (Corn; [1]): 5%; % Inhibition Corn (Corn; [2]): 15%; % Inhibition Corn (Corn; [3]): 10%; % Inhibition Corn (Corn; [4]): 0%; % Inhibition Corn (Corn; [5]): 5%; % Inhibition Corn (Corn; [6]): 20%; % Inhibition VELE (Velvetleaf (VELE); [1]): 65%; % Inhibition VELE (Velvetleaf (VELE); [2]): 85%; % Inhibition VELE (Velvetleaf (VELE); [3]): 95%; % Inhibition VELE (Velvetleaf (VELE); [4]): 10%; % Inhibition VELE (Velvetleaf (VELE); [5]): 75%; % Inhibition VELE (Velvetleaf (VELE); [6]): 90% |
| COC(=O)COC(c1ccccc1)c1ccccc1 [compound 12] | 0 | 15 | 0 | 0 | 20 | 55 | 30 | 70 | 75 | 25 | 80 | 85 | 5 | 70 | 80 | 0 | 0 | 15 | 0 | 10 | % Inhibition RICE (RICE; [3]): 10%; % Inhibition RICE (RICE; [4]): 0%; % Inhibition RICE (RICE; [5]): 20%; % Inhibition RICE (RICE; [6]): 70%; % Inhibition Corn (Corn; [1]): 0%; % Inhibition Corn (Corn; [2]): 10%; % Inhibition Corn (Corn; [3]): 10%; % Inhibition Corn (Corn; [4]): 0%; % Inhibition Corn (Corn; [5]): 0%; % Inhibition Corn (Corn; [6]): 20%; % Inhibition VELE (Velvetleaf (VELE); [1]): 50%; % Inhibition VELE (Velvetleaf (VELE); [2]): 85%; % Inhibition VELE (Velvetleaf (VELE); [3]): 95%; % Inhibition VELE (Velvetleaf (VELE); [4]): 0%; % Inhibition VELE (Velvetleaf (VELE); [5]): 75%; % Inhibition VELE (Velvetleaf (VELE); [6]): 85% |
